Results from patent US9850283B2, “Macrocyclic inhibitors of the PD-1/PD-L1 and CD80(B7-1)/PD-L1 protein/protein interactions” (BRISTOL-MYERS SQUIBB COMPANY, priority 2013, dated 2017).
pIC50: −log10 of the molar value. Read-outs that look alike come from different tables or passages of the source. Positions of bridges follow the written chain, without caps; N, C: chain ends. Non-standard residues stand in square brackets, D forms with d. Residues, ends and D or L forms follow the SMILES beside them. Phe(3,4,5-F3) = N[C@@H](Cc1cc(F)c(F)c(F)c1)C(=O)O; Bip = N[C@@H](Cc1ccc(-c2ccccc2)cc1)C(=O)O; Dopa = N[C@@H](Cc1ccc(O)c(O)c1)C(=O)O; Bta = N[C@@H](Cc1csc2ccccc12)C(=O)O; Hyp = O=C(O)[C@@H]1C[C@@H](O)CN1; NMeF = CN[C@@H](Cc1ccccc1)C(=O)O; 4Pal = N[C@@H](Cc1ccncc1)C(=O)O; dHyp = O=C(O)[C@H]1C[C@H](O)CN1; NMeNle = CCCC[C@H](NC)C(=O)O; dPip = O=C(O)[C@H]1CCCCN1; NMeA = CN[C@@H](C)C(=O)O; Orn = NCCC[C@H](N)C(=O)O; Dab = NCC[C@H](N)C(=O)O; Dap = NC[C@H](N)C(=O)O; Sar = CNCC(=O)O

Legend:
Human PD-L1/PD-1 = target: T1, Human PD-L1/PD-1 (Homo sapiens, UniProt Q9NZQ7); assay: HTRF PD-1-Ig/PD-L1-His binding assay (human PD-L1)
T1 construct: made in house; host or cells: HEK293T
T1 sequence (Q9NZQ7 with tags, fused parts or gaps): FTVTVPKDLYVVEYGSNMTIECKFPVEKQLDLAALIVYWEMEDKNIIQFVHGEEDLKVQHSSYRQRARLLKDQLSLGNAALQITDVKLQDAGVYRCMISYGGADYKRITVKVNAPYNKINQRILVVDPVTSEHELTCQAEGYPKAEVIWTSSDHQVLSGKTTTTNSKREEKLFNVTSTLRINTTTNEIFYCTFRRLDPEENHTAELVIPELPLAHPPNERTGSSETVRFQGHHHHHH
Outline: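 Soluble PD-1-Ig binding to PD-L1-His measured by HTRF in dPBS with 0.1% BSA and 0.05% Tween-20. Detection used europium cryptate anti-Ig antibody (1 nM final) and APC anti-His antibody (20 nM final) added on top of the binding reaction.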

[1] = target: T2, LK35.2-hPD-L1 cells / PE-labeled PD-1-Ig (Homo sapiens, UniProt Q9NZQ7); assay: LK35.2-hPD-L1 cell binding high-content screening assay; assay type: cell-based; settings: cell binding assay, cell line not given
T2 construct: expressed in transfected cells; host or cells: LK35.2 mouse B cell line
T2 sequence (Q9NZQ7 19-290): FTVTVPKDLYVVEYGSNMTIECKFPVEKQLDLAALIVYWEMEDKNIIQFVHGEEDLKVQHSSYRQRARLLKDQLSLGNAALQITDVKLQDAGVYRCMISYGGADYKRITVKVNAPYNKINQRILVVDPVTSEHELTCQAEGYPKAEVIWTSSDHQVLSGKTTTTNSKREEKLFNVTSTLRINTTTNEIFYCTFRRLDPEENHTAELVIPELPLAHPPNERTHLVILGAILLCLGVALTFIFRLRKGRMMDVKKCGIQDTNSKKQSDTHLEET
Outline: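 Compound effect on PD-1/PD-L1 binding is measured by imaging cell-associated phycoerythrin signal. Human PD-1-Ig (PE on Ig tag, 1 nM final) is applied with compound to a murine B cell line overexpressing human PD-L1 for 1 h at 37 °C in serum-containing RPMI.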

[2] = cluster symbol, read-out: HTRF IC50 cluster
[3] = cluster symbol, read-out: CBA IC50 cluster
[4] = value given instead of cluster, read-out: HTRF IC50 value

Structure (SMILES) | pIC50 (Human PD-L1/PD-1; [2]) | pIC50 [1, 3] | pIC50 (Human PD-L1/PD-1; [4]) | pIC50 ([1]; value given instead of cluster, read-out: CBA IC50 value)
CCCC[C@H]1C(=O)N(C)[C@@H](CCCC)C(=O)N[C@@H](CCCNC(=N)N)C(=O)N[C@H](C(=O)NCC(N)=O)CSCC(=O)N[C@@H](Cc2ccccc2)C(=O)N(C)[C@@H](C)C(=O)N[C@@H](CC(N)=O)C(=O)N2CCC[C@H]2C(=O)N[C@@H](Cc2cnc[nH]2)C(=O)N[C@@H](CC(C)C)C(=O)N(C)CC(=O)N[C@@H](Cc2c[nH]c3ccccc23)C(=O)N[C@@H](CCN)C(=O)N[C@@H](Cc2c[nH]c3ccccc23)C(=O)N1C [Example 5001] ({CH2CO}-F[NMeA]NPHL[Sar]W[Dab]W[NMeNle][NMeNle]RCG-NH2; thioether N-14) | 8.17 to 9.41 | 7.14 to 8.32 |  | 
CCCC[C@H]1C(=O)N(C)[C@@H](CCCC)C(=O)N[C@@H](CCCNC(=N)N)C(=O)N[C@H](C(=O)NCC(N)=O)CSCC(=O)N[C@@H](Cc2ccccc2)C(=O)N(C)[C@@H](C)C(=O)N[C@@H](CC(N)=O)C(=O)N2CCC[C@H]2C(=O)N[C@@H](Cc2cnc[nH]2)C(=O)N[C@@H](CC(C)C)C(=O)N(C)CC(=O)N[C@@H](Cc2c[nH]c3ccccc23)C(=O)N[C@@H](CN)C(=O)N[C@@H](Cc2c[nH]c3ccccc23)C(=O)N1C [Example 5002] ({CH2CO}-F[NMeA]NPHL[Sar]W[Dap]W[NMeNle][NMeNle]RCG-NH2; thioether N-14) | < 7.52 | < 7.13 |  | 
CCCC[C@H]1C(=O)N(C)[C@@H](CCCC)C(=O)N[C@@H](CC(C)C)C(=O)N[C@H](C(=O)NCC(N)=O)CSCC(=O)N[C@@H](Cc2ccc(O)cc2)C(=O)N(C)[C@@H](C)C(=O)N[C@@H](CC(N)=O)C(=O)N2CCC[C@H]2C(=O)N[C@@H](Cc2c[nH]cn2)C(=O)N[C@@H](CCC(=O)O)C(=O)N2C[C@H](O)C[C@H]2C(=O)N[C@@H](Cc2c[nH]c3ccccc23)C(=O)N[C@@H](CO)C(=O)N[C@@H](Cc2c[nH]c3ccccc23)C(=O)N1C [Example 5003] ({CH2CO}-Y[NMeA]NPHE[Hyp]WSW[NMeNle][NMeNle]LCG-NH2; thioether N-14) | 7.52 to 8.17 | 8.33 to 9.80 |  | 
CCCC[C@H]1C(=O)N2CCC[C@@H]2C(=O)N[C@@H](CCCNC(=N)N)C(=O)N[C@H](C(=O)NCC(N)=O)CSCC(=O)N[C@@H](Cc2ccc(O)cc2)C(=O)N(C)[C@@H](C)C(=O)N[C@@H](CC(N)=O)C(=O)N2CCC[C@H]2C(=O)N[C@@H](Cc2cnc[nH]2)C(=O)N[C@@H](CC(C)C)C(=O)N2CCC[C@H]2C(=O)N[C@@H](Cc2c[nH]c3ccccc23)C(=O)N[C@@H](CO)C(=O)N[C@@H](Cc2csc3ccccc23)C(=O)N1C [Example 5004] ({CH2CO}-Y[NMeA]NPHLPWS[Bta][NMeNle][dP]RCG-NH2; thioether N-14) | 7.52 to 8.17 | 7.14 to 8.32 |  | 
CCCC[C@H]1C(=O)N(C)[C@@H](COc2cccc(C)c2)C(=O)N[C@@H](CCCNC(=N)N)C(=O)N[C@H](C(=O)NCC(N)=O)CSCC(=O)N[C@@H](Cc2ccc(O)cc2)C(=O)N(C)[C@@H](C)C(=O)N[C@@H](CC(N)=O)C(=O)N2CCC[C@H]2C(=O)N[C@@H](CN)C(=O)N[C@@H](CC(C)C)C(=O)N2C[C@H](O)C[C@H]2C(=O)N[C@@H](Cc2c[nH]c3ccccc23)C(=O)N[C@@H](CO)C(=O)N[C@@H](Cc2csc3ccccc23)C(=O)N1C [Example 5005] | 7.52 to 8.17 | 7.14 to 8.32 |  | 
CCCC[C@H]1C(=O)N(C)[C@@H](CCCC)C(=O)N[C@@H](CN)C(=O)N[C@H](C(=O)NCC(N)=O)CSCC(=O)N[C@@H](Cc2ccccc2)C(=O)N(C)[C@@H](C)C(=O)N[C@@H](CC(N)=O)C(=O)N2CCC[C@H]2C(=O)N[C@@H](Cc2cnc[nH]2)C(=O)N[C@@H](CC(C)C)C(=O)N(C)CC(=O)N[C@@H](Cc2c[nH]c3ccccc23)C(=O)N[C@@H](CO)C(=O)N[C@@H](Cc2c[nH]c3ccccc23)C(=O)N1C [Example 5007] ({CH2CO}-F[NMeA]NPHL[Sar]WSW[NMeNle][NMeNle][Dap]CG-NH2; thioether N-14) | 7.52 to 8.17 | 7.14 to 8.32 |  | 
CCCC[C@H]1C(=O)N(C)[C@@H](CCCC)C(=O)N[C@@H](CCCNC(=N)N)C(=O)N[C@H](C(=O)NCC(N)=O)CSCC(=O)N[C@@H](Cc2ccccc2)C(=O)N(C)[C@@H](C)C(=O)N[C@@H](CC(N)=O)C(=O)N2CCC[C@H]2C(=O)N[C@@H](Cc2c[nH]cn2)C(=O)N[C@@H](CC(C)C)C(=O)N(C)CC(=O)N[C@@H](Cc2c[nH]c3ccccc23)C(=O)N[C@@H]([C@@H](C)O)C(=O)N[C@@H](Cc2c[nH]c3ccccc23)C(=O)N1C [Example 5008] ({CH2CO}-F[NMeA]NPHL[Sar]WTW[NMeNle][NMeNle]RCG-NH2; thioether N-14) |  |  | 7.74 | 7.64
CCCC[C@H]1C(=O)N2CCC[C@@H]2C(=O)N[C@@H](CCCNC(=N)N)C(=O)N[C@H](C(=O)NCC(N)=O)CSCC(=O)N[C@@H](Cc2ccccc2)C(=O)N(C)[C@@H](C)C(=O)N[C@@H](CC(N)=O)C(=O)N2CCC[C@H]2C(=O)N[C@@H](Cc2cnc[nH]2)C(=O)N[C@@H](CC(C)C)C(=O)N(C)CC(=O)N[C@@H](Cc2c[nH]c3ccccc23)C(=O)N[C@@H](CO)C(=O)N[C@@H](Cc2c[nH]c3ccccc23)C(=O)N1C [Example 5009] (HELM PEPTIDE1{[O=C(C[*:3])[*:2]].F.[meA].N.P.H.L.[Sar].W.S.W.[CCCC[C@@H](C(=O)[*:2])N(C)[*:1]].[dP].R.C.G.[am]}$PEPTIDE1,PEPTIDE1,1:R3-15:R3$$$V2.0) |  | < 7.13 | 7.52 | 
CCCC[C@H]1C(=O)N2CCC[C@@H]2C(=O)N[C@@H](CCCN)C(=O)N[C@H](C(=O)NCC(N)=O)CSCC(=O)N[C@@H](Cc2ccc(O)cc2)C(=O)N(C)[C@@H](C)C(=O)N[C@@H](CC(N)=O)C(=O)N2CCC[C@H]2C(=O)N[C@@H](Cc2cnc[nH]2)C(=O)N[C@@H](CC(C)C)C(=O)N2CCC[C@H]2C(=O)N[C@@H](Cc2c[nH]c3ccccc23)C(=O)N[C@@H](CO)C(=O)N[C@@H](Cc2csc3ccccc23)C(=O)N1C [Example 5010] ({CH2CO}-Y[NMeA]NPHLPWS[Bta][NMeNle][dP][Orn]CG-NH2; thioether N-14) | 7.52 to 8.17 | 7.14 to 8.32 |  | 

More lines, now with the values ahead:

pIC50 (Human PD-L1/PD-1; [2]) | pIC50 [1, 3] | pIC50 (Human PD-L1/PD-1; [4]) | pIC50 ([1]; value given instead of cluster, read-out: CBA IC50 value) | Structure (SMILES)
8.17 to 9.41 | 8.33 to 9.80 |  |  | CCCC[C@H]1C(=O)N(C)CC(=O)N[C@@H](CC(=O)O)C(=O)N[C@@H](C(C)C)C(=O)N(C)[C@@H](Cc2ccccc2)C(=O)N[C@@H](Cc2ccc(O)cc2)C(=O)N(C)CC(=O)N[C@@H](Cc2c[nH]c3ccccc23)C(=O)N[C@@H](Cc2ccc(O)c(O)c2)C(=O)N[C@@H](CC(C)C)C(=O)N[C@H](C(=O)NCC(N)=O)CSCC(=O)N[C@@H](Cc2cc(F)c(F)c(F)c2)C(=O)N(C)[C@@H](Cc2ccccc2)C(=O)N1C [Example 3609] ({CH2CO}-[Phe(3,4,5-F3)][NMeF][NMeNle][Sar]DV[NMeF]Y[Sar]W[Dopa]LCG-NH2; thioether N-13)
7.52 to 8.17 | 7.14 to 8.32 |  |  | CCCC[C@H]1C(=O)N(C)CC(=O)N[C@@H](CC(N)=O)C(=O)N[C@@H](C(C)C)C(=O)N(C)[C@@H](Cc2ccccc2)C(=O)N[C@@H](Cc2ccc(O)cc2)C(=O)N(C)CC(=O)N[C@@H](Cc2c[nH]c3ccccc23)C(=O)N[C@@H](Cc2ccc(O)cc2)C(=O)N[C@@H](CCCN)C(=O)N[C@H](C(=O)NCC(N)=O)CSCC(=O)N[C@@H](Cc2ccccc2)C(=O)N[C@@H](Cc2ccncc2)C(=O)N1C [Example 3610] ({CH2CO}-F[4Pal][NMeNle][Sar]NV[NMeF]Y[Sar]WY[Orn]CG-NH2; thioether N-13)
< 7.52 | < 7.13 |  |  | CCCC[C@H]1C(=O)N(C)CC(=O)N[C@@H](CC(N)=O)C(=O)N[C@@H](C(C)C)C(=O)N(C)[C@@H](Cc2ccccc2)C(=O)N[C@@H](Cc2ccc(O)cc2)C(=O)N(C)CC(=O)N[C@@H](Cc2c[nH]c3ccccc23)C(=O)N[C@@H](Cc2ccc(O)cc2)C(=O)N[C@@H](CCCN)C(=O)N[C@H](C(=O)NCC(N)=O)CSCC(=O)N[C@@H](Cc2ccccc2)C(=O)N[C@@H](Cc2ccc(-c3ccccc3)cc2)C(=O)N1C [Example 3611] ({CH2CO}-F[Bip][NMeNle][Sar]NV[NMeF]Y[Sar]WY[Orn]CG-NH2; thioether N-13)
8.17 to 9.41 | 8.33 to 9.80 |  |  | CCCC[C@H]1C(=O)N2C[C@@H](O)C[C@@H]2C(=O)N[C@@H](CC(N)=O)C(=O)N[C@@H](C(C)C)C(=O)N(C)[C@@H](Cc2ccccc2)C(=O)N[C@@H](Cc2ccc(O)cc2)C(=O)N2CCCC[C@@H]2C(=O)N[C@@H](Cc2c[nH]c3ccccc23)C(=O)N[C@@H](Cc2ccc(O)cc2)C(=O)N[C@@H](CCCN)C(=O)N[C@H](C(=O)NCC(N)=O)CSCC(=O)N[C@@H](Cc2cc(F)c(F)c(F)c2)C(=O)N(C)[C@@H](Cc2ccccc2)C(=O)N1C [Example 3613] ({CH2CO}-[Phe(3,4,5-F3)][NMeF][NMeNle][dHyp]NV[NMeF]Y[dPip]WY[Orn]CG-NH2; thioether N-13)
8.17 to 9.41 | 7.14 to 8.32 |  |  | CCCC[C@H]1C(=O)N(C)[C@@H](CCCC)C(=O)N[C@@H](CCN)C(=O)N[C@H](C(=O)NCC(N)=O)CSCC(=O)N[C@@H](Cc2ccccc2)C(=O)N(C)[C@@H](C)C(=O)N[C@@H](CC(N)=O)C(=O)N2CCC[C@H]2C(=O)N[C@@H](Cc2cnc[nH]2)C(=O)N[C@@H](CC(C)C)C(=O)N(C)CC(=O)N[C@@H](Cc2c[nH]c3ccccc23)C(=O)N[C@@H](CO)C(=O)N[C@@H](Cc2c[nH]c3ccccc23)C(=O)N1C [Example 5006] ({CH2CO}-F[NMeA]NPHL[Sar]WSW[NMeNle][NMeNle][Dab]CG-NH2; thioether N-14)
